What was measured:
[1] = molecular target: T1, estrogen receptor (Homo sapiens, UniProt P03372); assay: pS2 secretion, additional set of experiments, ZR 75-1 in 96-well trays, pS2 RIA; settings: for relative amount of pS2 (no hormone added = 1): zr 75-1 cells, 48 h
T1 sequence (P03372 1-595): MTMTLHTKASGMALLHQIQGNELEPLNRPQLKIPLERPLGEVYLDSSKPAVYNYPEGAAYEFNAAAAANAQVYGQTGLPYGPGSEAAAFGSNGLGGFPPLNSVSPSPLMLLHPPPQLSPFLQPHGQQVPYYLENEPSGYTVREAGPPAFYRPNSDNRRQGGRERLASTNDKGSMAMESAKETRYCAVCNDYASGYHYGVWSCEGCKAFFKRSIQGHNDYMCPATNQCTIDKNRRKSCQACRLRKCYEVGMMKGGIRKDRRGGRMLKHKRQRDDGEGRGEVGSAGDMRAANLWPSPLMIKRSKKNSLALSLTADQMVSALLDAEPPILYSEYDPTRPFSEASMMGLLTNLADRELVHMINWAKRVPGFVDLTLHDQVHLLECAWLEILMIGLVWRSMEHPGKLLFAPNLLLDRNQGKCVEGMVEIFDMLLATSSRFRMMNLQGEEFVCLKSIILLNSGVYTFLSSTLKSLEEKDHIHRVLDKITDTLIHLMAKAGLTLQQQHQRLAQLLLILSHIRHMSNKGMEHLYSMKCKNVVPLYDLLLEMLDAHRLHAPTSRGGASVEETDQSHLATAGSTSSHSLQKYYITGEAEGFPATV
Description: (§1) The amount of pS2 secreted into the medium was determined with the aid of a commercial RIA (ELSA pS2 from CIS Bioindustries, Gif-sur-Yvette, France).
(§2) Samples of the cells ZR 75-1 and MCF7, respectively, were distributed into plastic petridishes (suitable for the culturing of mammalian cells).
(§3) Samples of the cells ZR 75-1 ([…]) and MCF7 (2.5×10^4 cells/well), respectively, were distributed in 96-well trays. The cells were distributed in the same medium as used on day 1.
(§4) The wells were washed with 100 μl Coon's medium/well. The first medium was replaced by the second medium (B) without 1% FCS. The following hormone additions were made:
(§5) 48 hours after the hormone addition the number of cells and their morphology were investigated. Medium from each well was transferred to Eppendorf tubes. The possible amount of pS2 in the medium samples was analyzed with the aid of a commercial pS2 RIA (ELSA pS2 ).

[2] = molecular target: T1, estrogen receptor; assay: pS2 secretion, additional set of experiments, MCF7 in 96-well trays, pS2 RIA; settings: for relative amount of pS2 (no hormone added = 1): mcf7 cells, 48 h
Description: as §1, §2, §3, §4, §5

[3] = molecular target: T1, estrogen receptor; assay: Cathepsin D secretion into medium, MCF7 in petridishes, Cath D RIA
Description: The experiment was conducted using the human breast cancer cell line MCF7 (ATCC HTB 22). The selected cellular response to be analyzed was the amount of expressed cathepsin D (Cath D), the expression of which is regulated by the estrogen receptor. […] The amount of Cath D secreted into the medium was determined with the aid of a commercial RIA (ELSA-CATH-D from CIS Bioindustries, Gif-sur-Yvette, France). The performance of the method is as follows:
A sample of the cell line MCF7 (4×10^5 cells) was distributed into plastic petridishes (suitable for the culturing of mammalian cells). The cells were suspended in the first medium (C).
The petridishes were incubated at 37° C. and 5% CO2 in a temperature and humidity controlled chamber.
The first medium (C) was replaced by the second medium, which consisted of fresh first medium (C). The following hormone additions were made:
The petridishes were incubated in the temperature and humidity controlled chamber under the same conditions as above.
72 hours after the hormone addition visual inspection of the number of cells and their morphology was performed. Medium from each petridish was transferred to Eppendorf tubes and centrifuged 7 minutes at 1000rpm (Eppendorf centrifuge). The amount of Cath D in the medium samples was analyzed with the aid of the commercial Cath D RIA (ELSA-CATH D)

[4] = molecular target: T1, estrogen receptor; assay: Cathepsin D secretion, additional set of experiments, ZR 75-1 in 96-well trays, Cath D RIA
Description: (§6) The amount of Cath D secreted into the medium was determined with the aid of a commercial RIA (ELSA-CATD-D from CIS Bio-industries, Gif-sur-Yvette, France).
as §2
(§7) Samples of the cells ZR 75-1 (4×10^4 cells/well) and MCF7 (2.5×10^4 cells/well), respectively, were distributed in 96-well trays. The cells were distributed in the same medium as used on day 1.
as §4
(§8) 48 hours after the hormone addition the number of cells and their morphology were investigated. Medium from each well was transferred to Eppendorf tubes. The possible amount of Cath D in the medium samples was analyzed with the aid of a commercial Cath D RIA (ELSA-CATH-D).

[5] = molecular target: T1, estrogen receptor; assay: Cathepsin D secretion, additional set of experiments, MCF7 in 96-well trays, Cath D RIA
Description: as §6, §2, §7, §4, §8

[6] = test system: ZR 75-1; assay: Proliferation, amount of ATP after 6 days, ZR 75-1; format: cell-based, human
Description: The growth is determined by measuring the amount of ATP in the cells after incubation with ligands for 6 days. […]
Samples of the cells ZR 75-1 (8000 cells/well) and MCF7 (4000 cells/well), respectively, were distributed into microtiter plates having 96 wells.
The following hormone additions were made:
The medium was replaced by fresh medium of the same composition as on day 6, and hormone additions as on day 6.
6 days after hormone addition the number of cells and their morphology were investigated. Medium from each well was poured off. To each well was added 100 μl 1% TCA (trichloro acetic acid).

[7] = ZR-75-1, 48 h, read-out: relative amount of pS2 (no hormone added = 1)
[8] = MCF7, 48 h, read-out: relative amount of pS2 (no hormone added = 1)
[9] = 10^-8 M LY 117018, presence of 10^-10 M E2

Question: For O=C(c1ccc(OCCN2CCCC2)cc1)c1c(-c2ccc(O)cc2)sc2cc(O)ccc12 [LY 117018], which “inhibition of the expression of pS2” value ([1]; ZR 75-1, 10 nM LY 117018 and 0.1 nM E2) is on record?
Answer: Its value is “inhibited down to the same level as in the absence of added hormone”.

Question: What about the “function on pS2 expression” value ([1]; ZR 75-1, 10^-8 M LY 117018, presence of 10^-10 M E2) of the same molecule?
Answer: Its value is “functions as an antagonist”.

Question: And the “antagonist strength compared with Tamoxifen, pS2” value ([1]; ZR 75-1, presence of 0.1 nM E2)?
Answer: The value was “stronger antagonist than Tamoxifen”.

Question: What about the “influence on the pS2 secretion” value ([1]; ZR 75-1, substance alone, without E2) of the same molecule?
Answer: The value was “do not have an influence”.

Question: What about the fold induction at 0.001 µM [1, 7] of the same molecule?
Answer: Its fold induction at 0.001 µM is 0.9.

Question: What about the fold induction at 0.01 µM [1, 7] of the same molecule?
Answer: The fold induction at 0.01 µM was 0.86.

Question: What about the fold induction at 0.1 µM [1, 7] of the same molecule?
Answer: Its fold induction at 0.1 µM is 0.78.

Question: And the fold induction at 1 µM [1, 7]?
Answer: The fold induction at 1 µM was 0.75.

Question: What about the “relative amount of pS2 (no hormone added = 1)” value ([1]; 0.001 µM) of the same molecule?
Answer: The value was 1.96.

Question: And the “relative amount of pS2 (no hormone added = 1)” value ([1]; 0.01 µM)?
Answer: Its value is 0.84.

Question: And the “relative amount of pS2 (no hormone added = 1)” value ([1]; 0.1 µM)?
Answer: Its value is 0.91.

Question: What about the “relative amount of pS2 (no hormone added = 1)” value ([1]; 1 µM) of the same molecule?
Answer: Its value is 0.83.

Question: What about the fold induction at 0.001 µM [2, 8] of the same molecule?
Answer: Its fold induction at 0.001 µM is 0.89.

Question: And the fold induction at 0.01 µM [2, 8]?
Answer: Its fold induction at 0.01 µM is 1.

Question: What about the fold induction at 0.1 µM [2, 8] of the same molecule?
Answer: The fold induction at 0.1 µM was 0.93.

Question: What about the fold induction at 1 µM [2, 8] of the same molecule?
Answer: The fold induction at 1 µM was 1.

Question: What about the “inhibition of the expression of pS2” value ([2]; MCF7, 10 nM LY 117018 and 0.1 nM E2) of the same molecule?
Answer: Its value is “inhibited down to the same level as in the absence of added hormone”.

Question: What about the “function on pS2 expression” value ([2]; MCF7, 10^-8 M LY 117018, presence of 10^-10 M E2) of the same molecule?
Answer: The value was “functions as an antagonist”.

Question: And the “antagonist strength compared with Tamoxifen, pS2” value ([2]; MCF7, presence of 0.1 nM E2)?
Answer: The value was “stronger antagonist than Tamoxifen”.

Question: And the “influence on the pS2 secretion” value ([2]; MCF7, substance alone, without E2)?
Answer: The value was “do not have an influence”.

Question: And the “relative amount of pS2 (no hormone added = 1)” value ([2]; 0.001 µM)?
Answer: The value was 2.01.

Question: And the “relative amount of pS2 (no hormone added = 1)” value ([2]; 0.01 µM)?
Answer: The value was 1.11.

Question: And the “relative amount of pS2 (no hormone added = 1)” value ([2]; 0.1 µM)?
Answer: Its value is 1.19.

Question: What about the “relative amount of pS2 (no hormone added = 1)” value ([2]; 1 µM) of the same molecule?
Answer: Its value is 1.18.

Question: What about the fold induction at 0.1 µM ([3]; MCF7, 72 h, read-out: relative amount of Cath D (no hormone added = 1)) of the same molecule?
Answer: Its fold induction at 0.1 µM is 0.88.

Question: What about the “function on Cath D expression” value ([3]; MCF7, 10^-7 M LY 117018, both in the absence and in the presence of 10^-8 M E2) of the same molecule?
Answer: Its value is “acts as an estrogen antagonist”.

Question: What about the “inhibition of the expression of Cath D” value ([4]; 10 nM LY 117018 and 0.1 nM E2) of the same molecule?
Answer: Its value is “inhibited down to same level as in the absence of added hormone”.

Question: And the “function on Cath D expression” value [4, 9]?
Answer: The value was “functions as an antagonist”.

Question: And the “antagonist strength compared with Tamoxifen, Cath D” value ([4]; presence of 0.1 nM E2)?
Answer: Its value is “stronger antagonist than Tamoxifen”.

Question: And the “influence on the Cath D secretion” value ([4]; substance alone, without E2)?
Answer: Its value is “do not have an influence”.

Question: And the “inhibition of the expression of Cath D” value ([5]; 10 nM LY 117018 and 0.1 nM E2)?
Answer: The value was “inhibited down to same level as in the absence of added hormone”.

Question: What about the “function on Cath D expression” value [5, 9] of the same molecule?
Answer: Its value is “functions as an antagonist”.

Question: And the “antagonist strength compared with Tamoxifen, Cath D” value ([5]; presence of 0.1 nM E2)?
Answer: Its value is “stronger antagonist than Tamoxifen”.

Question: And the “influence on the Cath D secretion” value ([5]; substance alone, without E2)?
Answer: The value was “do not have an influence”.

Question: What about the inhibition of growth ([6]; 0.1 nM E2 and 10 nM LY 117018) of the same molecule?
Answer: The inhibition of growth was “inhibited down to the same level as in the absence of added hormone”.

Question: And the function on growth ([6]; 10^-7 M LY 117018, presence of 10^-10 M E2)?
Answer: Its function on growth is “functions as an antagonist”.

Question: And the activity at 1 µM ([6]; Homo sapiens, ZR-75-1, 144 h, + 10^-6 M LY 117018, -E2, 6 days, read-out: relative amount of ATP (no hormone added = 1))?
Answer: The activity at 1 µM was 69%.

Question: What about the activity at 0.1 µM ([6]; Homo sapiens, ZR-75-1, 144 h, + 10^-7 M LY 117018, -E2, 6 days, read-out: relative amount of ATP (no hormone added = 1)) of the same molecule?
Answer: The activity at 0.1 µM was 99%.

Question: And the activity at 0.01 µM ([6]; Homo sapiens, ZR-75-1, 144 h, + 10^-8 M LY 117018, -E2, 6 days, read-out: relative amount of ATP (no hormone added = 1))?
Answer: Its activity at 0.01 µM is 89%.

Question: What about the activity at 0.001 µM ([6]; Homo sapiens, ZR-75-1, 144 h, + 10^-9 M LY 117018, -E2, 6 days, read-out: relative amount of ATP (no hormone added = 1)) of the same molecule?
Answer: The activity at 0.001 µM was 103%.

Question: What about the “antagonist strength compared with Tamoxifen, growth” value ([6]; presence of 0.1 nM E2) of the same molecule?
Answer: Its value is “stronger antagonist than Tamoxifen”.
